Results on 13 molecules are retold here after patent US12279618B2, “Use of dihydroporphin derived from chlorophyll as plant growth regulator” (Anqing Better Bioengineering Co., Ltd, priority 2019, dated 2025).

Format in all cases: in vivo
For one assay, the system named is soybean seeds. The assay is described as follows: Soybean seed germination experiment (seed soaking method). How it is done:
(§1) Test Method: Ministerial Standard NYT 2061.1-2011, Seed Soaking Method 10 mg of each sample was weighed and put into a 10 ml volumetric flask, dissolved with DMSO, and diluted to volume after being dissolved completely. 1 ml of each diluted monomer solution was put into a 50-1000 ml volumetric flask, added with water, blended and diluted to volume so as to prepare a solution with a concentration of 2 ppm, 0.2 ppm, or 0.02 ppm. The method was substantially the same as that in Example 1 except that soybean seeds were used as the crop seeds, and the samples were crude chlorin, pyropheophorbide, chlorin f, chlorin e6, chlorin e4, purpurin-18, 15-oxymethyl rhodochlorin lactone, and 15-hydroxymethyl rhodochlorin lactone. The method was substantially the same as that in Example 2, except that the test samples were monomer chlorin e6 and control monomer chlorin e6 iron (III), both at a concentration of 0.02 ppm and the test seeds were corn, soybean, rice and wheat seeds. The preparation method of the control monomer was conducted by referring to CN102273467B.

The test system of a further assay is corn seeds. As to the kind of experiment: Corn seed germination experiment (seed soaking method, NYT 2061.1-2011). The text has this:
Test Method: Ministerial Standard NYT 2061.1-2011, Seed Soaking Method
Test samples: crude chlorin, and dihydroporphin monomers including chlorin fG, chlorin e6, pheophorbide, pyropheophorbide, chlorin e4, purpurin-7, purpurin-18, chlorin p6, 15-formyl rhodochlorin, 15-oxymethyl rhodochlorin, 15-oxymethyl rhodochlorin lactone A, 15-hydroxymethyl rhodochlorin, and 15-hydroxymethyl rhodochlorin lactone B, and pure water and iron chlorin e6 (China Pesticide Registration Certificate Number: PD20190031) were used as blank and positive control.
10 mg of each sample was weighed and put into a 10 ml volumetric flask, dissolved with DMSO, and diluted to volume after being dissolved completely. 1 ml of each diluted monomer solution was put into a 50-1000 ml volumetric flask, added with water, blended and diluted to volume so as to prepare a solution with a concentration of 2 ppm, 0.2 ppm, or 0.02 ppm.
The method was substantially the same as that in Example 2, except that the test samples were monomer chlorin e6 and control monomer chlorin e6 iron (III), both at a concentration of 0.02 ppm and the test seeds were corn, soybean, rice and wheat seeds. The preparation method of the control monomer was conducted by referring to CN102273467B.

A further assay has as its system rice seeds. As to the kind of experiment: Rice seed germination experiment (seed soaking method). How it is done: as §1, with “Example 2” for “Example 1”, “that rice” for “that soybean”, “crop seeds.” for “crop seeds, and the samples were crude chlorin, pyropheophorbide, chlorin f, chlorin e6, chlorin e4, purpurin-18, 15-oxymethyl rhodochlorin lactone, and 15-hydroxymethyl rhodochlorin lactone.”

For another assay, the system named is wheat seeds. As to the kind of experiment: Wheat seed germination experiment (seed soaking method). How it is done:
as §1, with “Example 2” for “Example 1”, “that wheat” for “that soybean”, “crop seeds.” for “crop seeds, and the samples were crude chlorin, pyropheophorbide, chlorin f, chlorin e6, chlorin e4, purpurin-18, 15-oxymethyl rhodochlorin lactone, and 15-hydroxymethyl rhodochlorin lactone.”

Where [1] appears, read: soybean seeds, 0.02 ppm sample solution.
[2] abbreviates: soybean seeds, 0.2 ppm sample solution.
[3] abbreviates: soybean seeds, 2 ppm sample solution.
[4] abbreviates: 0.02 ppm sample solution, seed soaking.
Setting [5] is: 0.2 ppm sample solution, seed soaking.
The mark [6] stands for this setting: 2 ppm sample solution, seed soaking.
Where [7] appears, read: comparison of the monomers, 0.02 ppm.
Setting [8] is: comparison of the monomers, 0.02 ppm, listed as chlorin e6.

For `C=Cc1c(C)c2cc3nc(c(CC(=O)O)c4[nH]c(cc5nc(cc1[nH]2)C(C)=C5CC)c(C)c4C(=O)O)[C@@H](CCC(=O)O)[C@@H]3C` [Chlorin e6, chlorin e6], the Germination rate % in the assay with soybean seeds (comparison of the monomers, soy bean seeds, 0.02 ppm) is 66%; in the assay with soybean seeds (comparison of the monomers, soy bean seeds, 0.02 ppm, listed as chlorin e6), “all better than those for the iron chelate monomer chlorin e6 iron (III)”; in the assay on soybean seeds (setting [1]) it was 60%; in the assay on soybean seeds (setting [2]), 59%; with soybean seeds (setting [3]), 60%; in the assay with corn seeds (setting [4]), 58%. In addition, the Germination rate % is recorded as 42% in the assay on corn seeds (setting [5]); 46% in the assay on corn seeds (setting [6]); 58% in the assay on corn seeds (setting [7]); “all better than those for the iron chelate monomer chlorin e6 iron (III)” in the assay with corn seeds (setting [8]); 70% with rice seeds (0.02 ppm sample solution); 74% in the assay with rice seeds (0.2 ppm sample solution). For the same molecule, the Germination rate % in the assay with rice seeds (2 ppm sample solution) is 68%; in the assay with rice seeds (setting [7]), 76%; in the assay on rice seeds (setting [8]), “all better than those for the iron chelate monomer chlorin e6 iron (III)”; in the assay with wheat seeds (0.02 ppm sample solution), 94%; in the assay with wheat seeds (0.02 ppm sample solution, listed as chlorin e6), “best germination effect”; with wheat seeds (0.2 ppm sample solution), 96%. Also, the values for the Germination rate % in the assay with wheat seeds (2 ppm sample solution), with wheat seeds (setting [7]) and with wheat seeds (setting [8]) were 90%, 94% and “all better than those for the iron chelate monomer chlorin e6 iron (III)”, respectively.

chlorin f: the Germination rate % is 66% with soybean seeds (setting [1]); 54% with soybean seeds (setting [2]); 62% in the assay on soybean seeds (setting [3]); “better germination effects than the positive control” in the assay with soybean seeds (soybean seeds, 2 ppm sample solution, listed as chlorin f); 55% with corn seeds (setting [4]); 66% in the assay with corn seeds (setting [5]). The Germination rate % was 58% in the assay with corn seeds (setting [6]); 76% in the assay with rice seeds (0.02 ppm sample solution); 72% in the assay with rice seeds (0.2 ppm sample solution); 66% in the assay on rice seeds (2 ppm sample solution); 94% in the assay with wheat seeds (0.02 ppm sample solution); “best germination effect” in the assay with wheat seeds (0.02 ppm sample solution, listed as chlorin f). The Germination rate % with wheat seeds (0.2 ppm sample solution) came out at 88%; in the assay on wheat seeds (2 ppm sample solution) it was 92%.

As to `C=Cc1c(C)c2cc3nc(c(C)c4[nH]c(cc5nc(cc1[nH]2)C(C)=C5CC)c(C)c4C(=O)O)[C@@H](CCC(=O)O)[C@@H]3C` [Chlorin e4, chlorin e4], the Germination rate % worked out at 67% in the assay with soybean seeds (setting [1]); 66% in the assay with soybean seeds (setting [2]); 65% in the assay with soybean seeds (setting [3]); 57% in the assay with corn seeds (setting [4]); 55% in the assay with corn seeds (setting [5]); 48% in the assay on corn seeds (setting [6]). For the same molecule, the Germination rate % in the assay with rice seeds (0.02 ppm sample solution) stood at 71%; in the assay on rice seeds (0.2 ppm sample solution), 76%; with rice seeds (2 ppm sample solution) it was 77%; in the assay on wheat seeds (0.02 ppm sample solution), 93%; in the assay with wheat seeds (0.2 ppm sample solution) it was 98%; with wheat seeds (2 ppm sample solution), 97%.

As to `C=Cc1c(C)c2cc3nc(c(C=O)c4[nH]c(cc5nc(cc1[nH]2)C(C)=C5CC)c(C)c4C(=O)O)[C@@H](CCC(=O)O)[C@@H]3C` [15-formyl rhodochlorin], the Germination rate % in the assay with corn seeds (setting [4]) came to 52%; in the assay on corn seeds (setting [5]), 51%; in the assay with corn seeds (setting [6]) it was 54%.

For `C=Cc1c(C)c2cc3nc(c(CO)c4[nH]c(cc5nc(cc1[nH]2)C(C)=C5CC)c(C)c4C(=O)O)C(CCC(=O)O)C3C` (stereo not shown) [15-hydroxymethyl rhodochlorin], the Germination rate % with corn seeds (setting [4]) is 58%; in the assay with corn seeds (setting [5]) it was 59%; in the assay with corn seeds (setting [6]), 55%.

Consider `C=Cc1c(C)c2cc3nc(c4c5[nH]c(cc6nc(cc1[nH]2)C(C)=C6CC)c(C)c5C(=O)OC4=O)[C@@H](CCC(=O)O)[C@@H]3C` [Purpurin-18, purpurin-18], for which the Germination rate % with soybean seeds (setting [1]) is reported as 66%; in the assay with soybean seeds (setting [2]), 65%; in the assay on soybean seeds (setting [3]), 67%; with corn seeds (setting [4]) it was 55%; with corn seeds (setting [5]), 58%; in the assay on corn seeds (setting [6]), 53%. Also, the Germination rate % with rice seeds (0.02 ppm sample solution) is given as 77%; in the assay on rice seeds (0.2 ppm sample solution), 78%; in the assay on rice seeds (2 ppm sample solution), 76%; in the assay on wheat seeds (0.02 ppm sample solution), 97%; with wheat seeds (0.2 ppm sample solution) it was 97%; in the assay with wheat seeds (2 ppm sample solution), 95%.

On to 15-oxymethyl rhodochlorin lactone, for which the Germination rate % in the assay with soybean seeds (setting [1]) worked out at 58%; with soybean seeds (setting [2]), 58%; in the assay with soybean seeds (setting [3]), 60%; with corn seeds (setting [4]), 54%; with corn seeds (setting [5]), 66%; with corn seeds (setting [6]), 58%. Also, the Germination rate % stood at 72% with rice seeds (0.02 ppm sample solution), 70% with rice seeds (2 ppm sample solution), 94% in the assay on wheat seeds (0.2 ppm sample solution) and 82% in the assay with wheat seeds (2 ppm sample solution).

On to `C=Cc1c(C)c2cc3nc(c4c5[nH]c(cc6nc(cc1[nH]2)C(C)=C6CC)c(C)c5C(=O)[C@@H]4C(=O)OC)[C@@H](CCC(=O)O)[C@@H]3C` [Pheophorbide, pheophorbide], for which the values for the Germination rate % with corn seeds (setting [4]), in the assay with corn seeds (setting [5]) and in the assay with corn seeds (setting [6]) were 57%, 55% and 56%, respectively.

`C=Cc1c(C)c2cc3nc(c4c5[nH]c(cc6nc(cc1[nH]2)C(C)=C6CC)c(C)c5C(=O)C4)[C@@H](CCC(=O)O)[C@@H]3C` [Pyropheophorbide, pyropheophorbide]: the Germination rate % in the assay on soybean seeds (setting [1]) came to 61%; in the assay on soybean seeds (setting [2]) it was 67%; with soybean seeds (setting [3]) it was 65%; with corn seeds (setting [4]), 58%; with corn seeds (setting [5]) it was 56%; in the assay with corn seeds (setting [6]), 55%. Also, the Germination rate % was found to be 73% in the assay on rice seeds (0.02 ppm sample solution); 74% in the assay with rice seeds (0.2 ppm sample solution); 72% in the assay on rice seeds (2 ppm sample solution); 94% in the assay with wheat seeds (0.02 ppm sample solution); 92% in the assay with wheat seeds (0.2 ppm sample solution); 93% in the assay with wheat seeds (2 ppm sample solution).

For the molecule 15-oxymethyl rhodochlorin, the Germination rate % in the assay on corn seeds (setting [4]) stood at 56%; in the assay with corn seeds (setting [5]), 52%; in the assay with corn seeds (setting [6]), 52%.

As to `C=Cc1c(C)c2cc3nc(c(C(=O)O)c4[nH]c(cc5nc(cc1[nH]2)C(C)=C5CC)c(C)c4C(=O)O)[C@@H](CCC(=O)O)[C@@H]3C` [Chlorin p6, chlorin p6], the Germination rate % in the assay on corn seeds (setting [4]) is 49%; in the assay with corn seeds (setting [5]), 55%; in the assay with corn seeds (setting [6]), 52%.

purpurin-7: the Germination rate % in the assay on corn seeds (setting [4]) is on record as 56%; with corn seeds (setting [5]), 57%; with corn seeds (setting [6]), 53%.

`C=Cc1c(C)c2cc3nc(c4c5[nH]c(cc6nc(cc1[nH]2)C(C)=C6CC)c(C)c5C(=O)OC4)C(CCC(=O)O)C3C` (stereo not shown) [15-hydroxymethyl rhodochlorin lactone]: the Germination rate % in the assay on soybean seeds (setting [2]) amounted to 60%; in the assay with corn seeds (setting [4]), 60%; in the assay with corn seeds (setting [5]), 54%; in the assay with corn seeds (setting [6]) it was 48%; in the assay with rice seeds (0.02 ppm sample solution), 72%; in the assay on rice seeds (0.2 ppm sample solution) it was 74%. Also, the Germination rate % in the assay with rice seeds (2 ppm sample solution) was found to be 68%; in the assay on wheat seeds (0.02 ppm sample solution), 86%; with wheat seeds (0.2 ppm sample solution), 96%; with wheat seeds (2 ppm sample solution) it was 92%.
